The source made the active and inactive calls. The calls are words filed in the database; no cut-off is given here.
Experiments:
Assay type in all cases: functional, cell-based
RAW264.7 [1] = assay: Cytotoxicity against mouse RAW264.7 cells assessed as reduction in cell viability at <50 uM incubated for 24 hrs by MTT assay
RAW264.7 [2] = assay: Antiinflammatory activity in mouse RAW264.7 cells assessed as inhibition of LPS-induced TNF-alpha expression at 0.1 uM measured after 24 hrs by ELISA method
RAW264.7 [3] = assay: Antiinflammatory activity in mouse RAW264.7 cells assessed as inhibition of LPS-induced NO production at 0.1 uM incubated for 24 hrs
RAW264.7 [4] = assay: Antiinflammatory activity in mouse RAW264.7 cells assessed as inhibition of LPS-induced NO production at 0.05 uM incubated for 24 hrs
RAW264.7 [5] = assay: Antiinflammatory activity in mouse RAW264.7 cells assessed as inhibition of LPS-induced NO production at 1 uM incubated for 24 hrs
RAW264.7 [6] = assay: Antiinflammatory activity in mouse RAW264.7 cells assessed as reduction in LPS-induced IL-6 level at 0.05 uM measured after 24 hrs by ELISA method
RAW264.7 [7] = assay: Antiinflammatory activity in mouse RAW264.7 cells assessed as inhibition of LPS-induced NO production at 2 uM incubated for 24 hrs
RAW264.7 [8] = assay: Cytotoxicity against mouse RAW264.7 cells assessed as reduction in cell viability at 2 to 10 uM incubated for 24 hrs by MTT assay; settings: dose 2-10 µM
RAW264.7 [9] = assay: Antiinflammatory activity in mouse RAW264.7 cells assessed as reduction in LPS-induced IL-6 level at 0.2 uM measured after 24 hrs by ELISA method
RAW264.7 [10] = assay: Cytotoxicity against mouse RAW264.7 cells assessed as reduction in cell viability at 10 uM incubated for 24 hrs by MTT assay
RAW264.7 [11] = assay: Antiinflammatory activity in mouse RAW264.7 cells assessed as inhibition of LPS-induced TNF-alpha expression at 0.2 uM measured after 24 hrs by ELISA method
RAW264.7 [12] = assay: Antiinflammatory activity in mouse RAW264.7 cells assessed as inhibition of LPS-induced NO production at 0.2 uM incubated for 24 hrs

Compound: CO[C@@H]1C(=O)Nc2ccc3c(c2[C@@]1(O)c1ccccc1)O[C@@](C)(CCC=C(C)C)C=C3
- Activity (RAW264.7 [1]): inactive

Compound: CO[C@@H]1C(=O)Nc2ccc3c(c2[C@@]1(O)c1ccccc1)O[C@](C)(CCC=C(C)C)C=C3
- Activity (RAW264.7 [2]): inactive
- Activity (RAW264.7 [3]): Active
- Activity (RAW264.7 [4]): inactive
- Activity (RAW264.7 [5]): Active
- Activity (RAW264.7 [6]): Active
- Activity (RAW264.7 [1]): inactive

Compound: CO[C@H]1C(=O)Nc2ccc3c(c2[C@]1(O)c1ccccc1)O[C@@](C)(CCC=C(C)C)C=C3
- Activity (RAW264.7 [1]): inactive

Compound: CO[C@H]1C(=O)Nc2ccc3c(c2[C@]1(O)c1ccccc1)O[C@](C)(CCC=C(C)C)C=C3
- Activity (RAW264.7 [2]): inactive
- Activity (RAW264.7 [3]): Active
- Activity (RAW264.7 [4]): inactive
- Activity (RAW264.7 [5]): Active
- Activity (RAW264.7 [6]): Active
- Activity (RAW264.7 [1]): inactive

Compound: COc1ccc([C@@]2(O)c3c(ccc4c3O[C@@](C)(CCC=C(C)C)C=C4)NC(=O)[C@@H]2OC)cc1
- Activity (RAW264.7 [1]): inactive

Compound: COc1ccc([C@@]2(O)c3c(ccc4c3O[C@](C)(CCC=C(C)C)C=C4)NC(=O)[C@@H]2OC)cc1
- Activity (RAW264.7 [1]): inactive

Compound: COc1ccc([C@]2(O)c3c(ccc4c3O[C@@](C)(CCC=C(C)C)C=C4)NC(=O)[C@H]2OC)cc1
- Activity (RAW264.7 [1]): inactive

Compound: COc1ccc([C@]2(O)c3c(ccc4c3O[C@](C)(CCC=C(C)C)C=C4)NC(=O)[C@H]2OC)cc1
- Activity (RAW264.7 [4]): inactive
- Activity (RAW264.7 [5]): Active
- Activity (RAW264.7 [1]): inactive

Compound: COc1ccc2c(c1)c(CC(=O)O)c(C)n2C(=O)c1ccc(Cl)cc1
- Activity (RAW264.7 [7]): inactive
- Activity (RAW264.7 [1]): inactive

Compound: CO[C@@H]1C(=O)Nc2ccc3c(c2[C@@]1(O)c1ccc(Br)cc1)O[C@@](C)(CCC=C(C)C)C=C3 (racemic)
- Activity (RAW264.7 [8]): Active

Compound: CO[C@@H]1C(=O)Nc2ccc3c(c2[C@@]1(O)c1ccc(Br)cc1)O[C@](C)(CCC=C(C)C)C=C3 (racemic)
- Activity (RAW264.7 [4]): inactive
- Activity (RAW264.7 [5]): Active
- Activity (RAW264.7 [1]): inactive

Compound: CO[C@@H]1C(=O)Nc2ccc3c(c2[C@@]1(O)c1ccc(C(F)(F)F)cc1)O[C@@](C)(CCC=C(C)C)C=C3 (racemic)
- Activity (RAW264.7 [2]): inactive
- Activity (RAW264.7 [3]): Active
- Activity (RAW264.7 [8]): Active
- Activity (RAW264.7 [4]): inactive
- Activity (RAW264.7 [5]): Active

Compound: CO[C@@H]1C(=O)Nc2ccc3c(c2[C@@]1(O)c1ccc(C(F)(F)F)cc1)O[C@](C)(CCC=C(C)C)C=C3 (racemic)
- Activity (RAW264.7 [4]): inactive
- Activity (RAW264.7 [5]): Active
- Activity (RAW264.7 [1]): inactive

Compound: CO[C@@H]1C(=O)Nc2ccc3c(c2[C@@]1(O)c1ccc(C)cc1)O[C@@](C)(CCC=C(C)C)C=C3 (racemic)
- Activity (RAW264.7 [1]): inactive

Compound: CO[C@@H]1C(=O)Nc2ccc3c(c2[C@@]1(O)c1ccc(C)cc1)O[C@](C)(CCC=C(C)C)C=C3 (racemic)
- Activity (RAW264.7 [1]): inactive

Compound: CO[C@@H]1C(=O)Nc2ccc3c(c2[C@@]1(O)c1ccc(Cl)cc1)O[C@@](C)(CCC=C(C)C)C=C3 (racemic)
- Activity (RAW264.7 [1]): inactive

Compound: CO[C@@H]1C(=O)Nc2ccc3c(c2[C@@]1(O)c1ccc(Cl)cc1)O[C@](C)(CCC=C(C)C)C=C3 (racemic)
- Activity (RAW264.7 [1]): inactive

Compound: CO[C@@H]1C(=O)Nc2ccc3c(c2[C@@]1(O)c1ccc(F)cc1)O[C@@](C)(CCC=C(C)C)C=C3 (racemic)
- Activity (RAW264.7 [1]): inactive

Compound: CO[C@@H]1C(=O)Nc2ccc3c(c2[C@@]1(O)c1ccc(F)cc1)O[C@](C)(CCC=C(C)C)C=C3 (racemic)
- Activity (RAW264.7 [1]): inactive

Compound: CO[C@@H]1C(=O)Nc2ccc3c(c2[C@@]1(O)c1ccc([N+](=O)[O-])cc1)O[C@@](C)(CCC=C(C)C)C=C3 (racemic)
- Activity (RAW264.7 [2]): inactive
- Activity (RAW264.7 [3]): Active
- Activity (RAW264.7 [4]): inactive
- Activity (RAW264.7 [5]): Active
- Activity (RAW264.7 [6]): Active
- Activity (RAW264.7 [1]): inactive

Compound: CO[C@@H]1C(=O)Nc2ccc3c(c2[C@@]1(O)c1ccc([N+](=O)[O-])cc1)O[C@](C)(CCC=C(C)C)C=C3 (racemic)
- Activity (RAW264.7 [2]): inactive
- Activity (RAW264.7 [3]): Active
- Activity (RAW264.7 [4]): inactive
- Activity (RAW264.7 [5]): Active
- Activity (RAW264.7 [1]): inactive

Compound: CO[C@@H]1C(=O)Nc2ccc3c(c2[C@@]1(O)c1cccc(Br)c1)O[C@@](C)(CCC=C(C)C)C=C3 (racemic)
- Activity (RAW264.7 [3]): Active
- Activity (RAW264.7 [4]): inactive
- Activity (RAW264.7 [5]): Active
- Activity (RAW264.7 [1]): inactive

Compound: CO[C@@H]1C(=O)Nc2ccc3c(c2[C@@]1(O)c1cccc(Br)c1)O[C@](C)(CCC=C(C)C)C=C3 (racemic)
- Activity (RAW264.7 [2]): inactive
- Activity (RAW264.7 [3]): Active
- Activity (RAW264.7 [4]): inactive
- Activity (RAW264.7 [5]): Active
- Activity (RAW264.7 [6]): Active
- Activity (RAW264.7 [1]): inactive

Compound: COc1ccc([C@]2(O)c3c(ccc4c3O[C@@](C)(CCC=C(C)C)C=C4)N(C)C(=O)[C@H]2OC)cc1 (racemic)
- Activity (RAW264.7 [4]): inactive
- Activity (RAW264.7 [5]): Active
- Activity (RAW264.7 [1]): inactive

Compound: COc1ccc([C@]2(O)c3c(ccc4c3O[C@@](C)(CCC=C(C)C)C=C4)N(Cc3ccc(Cl)cc3)C(=O)[C@H]2OC)cc1 (racemic)
- Activity (RAW264.7 [3]): Active
- Activity (RAW264.7 [4]): inactive
- Activity (RAW264.7 [5]): Active
- Activity (RAW264.7 [1]): inactive

Compound: COc1ccc([C@]2(O)c3c(ccc4c3O[C@@](C)(CCC=C(C)C)C=C4)N(Cc3cccc(Br)c3)C(=O)[C@H]2OC)cc1 (racemic)
- Activity (RAW264.7 [3]): Active
- Activity (RAW264.7 [4]): inactive
- Activity (RAW264.7 [5]): Active
- Activity (RAW264.7 [1]): inactive

Compound: COc1ccc([C@]2(O)c3c(ccc4c3O[C@@](C)(CCC=C(C)C)C=C4)N(Cc3cccc(C(F)(F)F)c3)C(=O)[C@H]2OC)cc1 (racemic)
- Activity (RAW264.7 [1]): inactive

Compound: COc1ccc([C@]2(O)c3c(ccc4c3O[C@@](C)(CCC=C(C)C)C=C4)N(Cc3cccc(C)c3)C(=O)[C@H]2OC)cc1 (racemic)
- Activity (RAW264.7 [1]): inactive

Compound: COc1ccc([C@]2(O)c3c(ccc4c3O[C@@](C)(CCC=C(C)C)C=C4)N(Cc3cccc(C)n3)C(=O)[C@H]2OC)cc1 (racemic)
- Activity (RAW264.7 [3]): Active
- Activity (RAW264.7 [4]): inactive
- Activity (RAW264.7 [5]): Active
- Activity (RAW264.7 [1]): inactive

Compound: COc1ccc([C@]2(O)c3c(ccc4c3O[C@@](C)(CCC=C(C)C)C=C4)N(Cc3cccc(F)c3)C(=O)[C@H]2OC)cc1 (racemic)
- Activity (RAW264.7 [4]): inactive
- Activity (RAW264.7 [5]): Active
- Activity (RAW264.7 [1]): inactive

Compound: COc1ccc([C@]2(O)c3c(ccc4c3O[C@@](C)(CCC=C(C)C)C=C4)N(Cc3ccccc3Cl)C(=O)[C@H]2OC)cc1 (racemic)
- Activity (RAW264.7 [4]): inactive
- Activity (RAW264.7 [5]): Active
- Activity (RAW264.7 [1]): inactive

Compound: COc1ccc([C@]2(O)c3c(ccc4c3O[C@](C)(CCC=C(C)C)C=C4)N(C)C(=O)[C@H]2OC)cc1 (racemic)
- Activity (RAW264.7 [4]): inactive
- Activity (RAW264.7 [5]): Active
- Activity (RAW264.7 [1]): inactive

Compound: COc1ccc([C@]2(O)c3c(ccc4c3O[C@](C)(CCC=C(C)C)C=C4)N(Cc3ccc(Cl)cc3)C(=O)[C@H]2OC)cc1 (racemic)
- Activity (RAW264.7 [4]): inactive
- Activity (RAW264.7 [5]): Active
- Activity (RAW264.7 [1]): inactive

Compound: COc1ccc([C@]2(O)c3c(ccc4c3O[C@](C)(CCC=C(C)C)C=C4)N(Cc3cccc(Br)c3)C(=O)[C@H]2OC)cc1 (racemic)
- Activity (RAW264.7 [3]): Active
- Activity (RAW264.7 [8]): Active
- Activity (RAW264.7 [4]): inactive
- Activity (RAW264.7 [5]): Active

Compound: COc1ccc([C@]2(O)c3c(ccc4c3O[C@](C)(CCC=C(C)C)C=C4)N(Cc3cccc(C(F)(F)F)c3)C(=O)[C@H]2OC)cc1 (racemic)
- Activity (RAW264.7 [3]): Active
- Activity (RAW264.7 [4]): inactive
- Activity (RAW264.7 [5]): Active
- Activity (RAW264.7 [1]): inactive

Compound: COc1ccc([C@]2(O)c3c(ccc4c3O[C@](C)(CCC=C(C)C)C=C4)N(Cc3cccc(C)c3)C(=O)[C@H]2OC)cc1 (racemic)
- Activity (RAW264.7 [1]): inactive

Compound: COc1ccc([C@]2(O)c3c(ccc4c3O[C@](C)(CCC=C(C)C)C=C4)N(Cc3cccc(C)n3)C(=O)[C@H]2OC)cc1 (racemic)
- Activity (RAW264.7 [1]): inactive

Compound: COc1ccc([C@]2(O)c3c(ccc4c3O[C@](C)(CCC=C(C)C)C=C4)N(Cc3cccc(F)c3)C(=O)[C@H]2OC)cc1 (racemic)
- Activity (RAW264.7 [3]): Active
- Activity (RAW264.7 [4]): inactive
- Activity (RAW264.7 [5]): Active
- Activity (RAW264.7 [1]): inactive

Compound: COc1ccc([C@]2(O)c3c(ccc4c3O[C@](C)(CCC=C(C)C)C=C4)N(Cc3ccccc3Cl)C(=O)[C@H]2OC)cc1 (racemic)
- Activity (RAW264.7 [1]): inactive

Compound: COc1cccc([C@]2(O)c3c(ccc4c3O[C@@](C)(CCC=C(C)C)C=C4)NC(=O)[C@H]2OC)c1 (racemic)
- Activity (RAW264.7 [4]): inactive
- Activity (RAW264.7 [5]): Active
- Activity (RAW264.7 [1]): inactive

Compound: COc1cccc([C@]2(O)c3c(ccc4c3O[C@](C)(CCC=C(C)C)C=C4)NC(=O)[C@H]2OC)c1 (racemic)
- Activity (RAW264.7 [4]): inactive
- Activity (RAW264.7 [5]): Active
- Activity (RAW264.7 [1]): inactive

Compound: CO[C@@H]1C(=O)Nc2ccccc2[C@@]1(O)c1ccccc1 (relative stereo)
- Activity (RAW264.7 [9]): inactive
- Activity (RAW264.7 [10]): Active
- Activity (RAW264.7 [11]): Active
- Activity (RAW264.7 [12]): Active

Compound: COc1cccc2c1[C@@](O)(c1ccccc1)[C@H](OC)C(=O)N2 (relative stereo)
- Activity (RAW264.7 [9]): Active
- Activity (RAW264.7 [10]): Active
- Activity (RAW264.7 [11]): Active
- Activity (RAW264.7 [12]): Active
